{"source": "ChEMBL document CHEMBL1135361", "about": "“Potent in vitro methicillin-resistant Staphylococcus aureus activity of 2-(1H-indol-3-yl)tetrahydroquinoline derivatives” (2002)", "data": [{"system": "Enterococcus faecium", "experiment": "Minimum inhibitory concentration against vancomycin-resistant Enterococcus faecium (VRE)", "type": "functional", "details": "not given", "units": {"MIC": "µg/mL"}, "values": [{"smiles": "NCc1cc(-c2c[nH]c3ccc(Br)cc23)nc2cc(Cl)ccc12", "MIC": 1.56}, {"smiles": "Clc1ccc2c(c1)[C@H]1NCC[C@H]1[C@H](c1c[nH]c3ccc(Cl)cc13)N2", "MIC": "> 25"}, {"smiles": "Clc1ccc2ccc(-c3c[nH]c4ccc(Br)cc34)nc2c1", "MIC": "> 25"}, {"smiles": "Clc1ccc2c(c1)[C@H]1NCC[C@H]1[C@@H](c1c[nH]c3ccc(Cl)cc13)N2", "MIC": "> 25"}]}, {"system": "Staphylococcus aureus", "experiment": "(§1) Minimum inhibitory concentration against methicillin-resistant Staphylococcus aureus", "type": "functional", "details": "not given", "units": {"MIC": "µg/mL"}, "values": [{"smiles": "Clc1ccc2c(c1)[C@H]1OCC[C@H]1[C@@H](c1c[nH]c3ccc(Br)cc13)N2", "note": "(stereo in doubt)", "MIC": 0.31}, {"smiles": "Clc1ccc2c(c1)[C@H]1OCC[C@H]1[C@@H](c1c[nH]c3ccc(Br)cc13)N2", "note": "(stereo in doubt; 9)", "MIC": 3.13}]}, {"system": "Staphylococcus aureus", "experiment": "as §1", "type": "functional", "details": "Staphylococcus aureus; read-out: MIC", "units": {"MIC": "µg/mL"}, "values": [{"smiles": "Clc1ccc2c(c1)[C@H]1OCC[C@H]1[C@H](c1c[nH]c3ccc(Cl)cc13)N2", "MIC": 3.13}, {"smiles": "NCc1cc(-c2c[nH]c3ccc(Br)cc23)nc2cc(Cl)ccc12", "MIC": 0.78}, {"smiles": "Clc1ccc2c(c1)[C@H]1NCC[C@H]1[C@H](c1c[nH]c3ccc(Cl)cc13)N2", "MIC": 6.25}, {"smiles": "Cc1[nH]c2ccccc2c1[C@H]1Nc2ccc(Cl)cc2[C@H]2OCC[C@@H]12", "MIC": "> 25"}, {"smiles": "Clc1ccc2c(c1)N(Cl)[C@H](c1c[nH]c3ccc(Br)cc13)[C@@H]1CCO[C@H]21", "MIC": 1.56}, {"smiles": "CC(C)(C)OC(=O)N1CC[C@H]2[C@@H](c3c[nH]c4ccc(Br)cc34)Nc3ccc(Cl)cc3[C@H]21", "MIC": 0.78}, {"smiles": "Clc1ccc2ccc(-c3c[nH]c4ccc(Br)cc34)nc2c1", "MIC": 0.6}, {"smiles": "Clc1cc(Cl)c2c(c1)[C@H]1OCC[C@H]1[C@@H](c1c[nH]c3ccc(Br)cc13)N2", "MIC": 1.56}, {"smiles": "COc1cccc2c1N[C@H](c1c[nH]c3ccc(Br)cc13)[C@@H]1CCO[C@H]21", "MIC": 1.56}, {"smiles": "OCC#Cc1ccc2c(c1)[C@H]1OCC[C@H]1[C@@H](c1c[nH]c3ccc(Br)cc13)N2", "MIC": 3.13}, {"smiles": "Brc1ccc2[nH]cc([C@H]3Nc4ccc(CCCN5CCCCC5)cc4[C@H]4OCC[C@@H]34)c2c1", "MIC": 12.5}, {"smiles": "CC(C)(C)OC(=O)N1CC[C@@H]2[C@H]1c1cc(Cl)ccc1N[C@H]2c1c[nH]c2ccc(Br)cc12", "MIC": 1.56}, {"smiles": "Clc1ccc2c(c1)[C@H]1OCC[C@H]1[C@@H](c1c[nH]c3ccc(Cl)cc13)N2", "MIC": 0.78}, {"smiles": "Clc1ccc2c(c1)[C@H]1OCC[C@H]1[C@H](c1c[nH]c3ccccc13)N2", "MIC": 6.25}, {"smiles": "Brc1ccc2[nH]cc([C@H]3Nc4c(I)cccc4[C@H]4OCC[C@@H]34)c2c1", "MIC": "< 0.39"}, {"smiles": "Clc1ccc2c(c1)[C@H]1OCC[C@H]1[C@@H](c1c[nH]c3ccccc13)N2", "MIC": "> 25"}, {"smiles": "Fc1ccc2c(c1)[C@H]1OCC[C@H]1[C@@H](c1c[nH]c3ccc(Br)cc13)N2", "MIC": 6.25}, {"smiles": "Fc1ccc2c([C@H]3Nc4ccc(Cl)cc4[C@H]4OCC[C@@H]34)c[nH]c2c1", "MIC": 6.25}, {"smiles": "Fc1cccc2c1N[C@H](c1c[nH]c3ccc(Br)cc13)[C@@H]1CCO[C@H]21", "MIC": 0.78}, {"smiles": "Clc1ccc2c(c1)[C@H]1OCC[C@H]1[C@H](c1c[nH]c3ccc(Br)cc13)N2", "MIC": 3.13}, {"smiles": "FC(F)(F)c1cccc2c1N[C@H](c1c[nH]c3ccc(Br)cc13)[C@@H]1CCO[C@H]21", "MIC": 0.78}, {"smiles": "Clc1ccc2c(c1)[C@H]1NCC[C@H]1[C@@H](c1c[nH]c3ccc(Cl)cc13)N2", "MIC": 3.13}, {"smiles": "Fc1ccc2c([C@@H]3Nc4ccc(Cl)cc4[C@H]4OCC[C@H]43)c[nH]c2c1", "MIC": 12.5}, {"smiles": "Brc1ccc2[nH]cc([C@H]3Nc4ccc(C#CCN5CCCCC5)cc4[C@H]4OCC[C@@H]34)c2c1", "MIC": 1.56}, {"smiles": "CN1c2ccc(Cl)cc2[C@H]2OCC[C@H]2[C@H]1c1c[nH]c2ccc(Br)cc12", "MIC": "> 25"}]}]}
